Data as given in patent publication US20200038411A1, “METHODS OF TREATING TE[…]” (priority 2017, published 2020).
“Also recorded” adds a separate entry of the source.

Columns and labels:
[1] = men; upper range for testosterone administered as TU (lymphatic absorption); cited from earlier work
[2] = Single 316 mg oral TU dose, T concentration-time profiles by sample collection tube type; assay type: in vivo, human; details: 3 hours post dose
Procedure: Each study participant received a single oral TU dose containing 316 mg TU immediately prior to a standardized breakfast meal comprised of 800 to 1000 calories containing approximately 30 g of fat or about 25 to 30 percent fat. Subjects were instructed to consume the entire breakfast meal in no more than 30 minutes. Blood samples were collected 30 minutes prior to oral TU administration and at 0 (pre-dose), and 1, 2, 3, 4, 5, 6, 7, 8, 9, 10, 11 and 12 hrs post-dose. Because of the timed sample collections, all except for one subject entered the clinical research unit around 7 AM and spend the study period of 12 to 14 hours in the unit. […]
Blood samples collected in tubes were kept at room temperature for 30 minutes then centrifuged at 4° C. for 20 minutes at >1000 g. For each blood collection tube, serum was separated promptly after centrifugation and equal quantities of serum were transferred into 2 appropriately labelled polypropylene tubes. […]
Blood samples collected in tubes were immediately kept on ice for 30 minutes then centrifuged at 4° C. for 20 minutes at >1000 g. For each blood collection tube, serum was separated promptly after centrifugation and equal quantities of serum were transferred into 2 appropriately labelled polypropylene tubes. […]
The frozen samples were stored at −20° C. until assay. All samples from a single participant were analyzed in the same assay run. […]

[3] = Blood collected into different tubes spiked with TU, measured T (LA Biomed experiments); assay type: in vitro ADME, human
Description: Additionally, non-specific esterases in blood may lead to hydrolysis of testosterone undecanoate (TU) (and its metabolite DHTU) during the blood collection procedure used to collect serum or plasma for evaluating T, dihydrotestosterone (DHT), TU and dihydrotestosterone undecanoate (DHTU) concentrations. If the extent of hydrolysis ex vivo is significant (e.g., at high concentrations of circulating TU or DHTU), then serum or plasma values of T, DHT, TU and DHTU may not accurately reflect the true in vivo concentrations of these compounds (e.g., T and DHT values may be artificially high due to ex vivo conversion of TU to T or DHTU to DHT). It has previously been shown that the collection of blood in sodium fluoride (NaF) containing tubes (so called ‘gray tops’ in a clinical setting) interfered with the measurement of serum T with a 20% decrease in the measured serum T levels (Wang, et al, 2008). […] In addition, the measured T concentrations in fluoride-containing tubes decreased by about 12 to 25%. Lachance et al published an article in 2015 that concluded T must be analyzed in enzyme-inhibited (i.e., NaF containing) plasma or serum when TU is administered to subjects in an oral form.

[4] = In vitro conversion of TU to T in whole blood at ambient temperature; assay type: in vitro ADME; details: human blood, conditions typical of harvesting serum, no enzyme inhibitors
Procedure: Testosterone undecanoate is metabolized into testosterone. Its degradation in whole blood into testosterone has been studied in conditions typically used in clinical trials.
The in vitro conversion of TU to T in whole blood samples at ambient temperature was investigated by harvesting approximately 50 mL of blood from subjects prior to their oral TU administration. Aliquots of the pretreatment whole blood were added to 5 Plain sample collection tubes each tube previously spiked with 1 of 5 selected concentrations of TU (0, 30, 100, 300 and 1000 ng/mL). After gentle mixing, the tubes were stored at room temperature (about 23° C.) for 30 minutes prior to separating serum. […]
The frozen samples were stored at −20° C. until assay. All samples from a single participant were analyzed in the same assay run. Serum and plasma from the different tubes were measured using the methods developed for serum. Both T and DHT were measured in the same assay and both TU and […] were analyzed in the same assay developed for serum measurements. […]
When serum is harvested in the absence of enzyme inhibitors, the hydrolysis of TU and DHTU to T and DHT occurs during whole blood collection and processing to serum. […] Thus, testosterone must be analyzed in enzyme-inhibited plasma when TU is the administered medication.

| Structure (SMILES) | plasma half-life of testosterone [1] [min] | difference in mean T concentration between the Plain tube type and the other tube types [2] | mean assayed T concentration of NaF tube types, less than the Plain tube type [2] | increases in the measured T levels after spiking with TU ([3]; NaF+oxalate and NaF+EDTA tubes kept at 4° C. for 30 minutes, 0, 300 or 600 ng/ml TU) | increase in measured T concentrations (ex vivo conversion of TU to T) ([3]; addition of TU in excess of 500 ng/ml, standard 'red top' plain tubes without additives) [%] | degradation (conversion) of TU to testosterone in whole blood [4] |
| --- | --- | --- | --- | --- | --- | --- |
| C[C@]12CC[C@H]3[C@@H](CCC4=CC(=O)CC[C@@]43C)[C@@H]1CC[C@@H]2O [T, Testosterone] | 10 to 100 | – | – | – | – | – |
| CCCCCCCCCCC(=O)O[C@H]1CC[C@H]2[C@@H]3CCC4=CC(=O)CC[C@]4(C)[C@H]3CC[C@]12C [TU, testosterone undecanoate] | – | approximately 150 ng/dL | approximately 14% | minimal increases | 20 to 25 | degrades extensively; also recorded: extensive and continues over time |
